The source of these data is ChEMBL document CHEMBL3045974, “Global antifungal profile optimization of chlorophenyl derivatives against Botrytis cinerea and Colletotrichum gloeosporioides” (2009).

Holding throughout (assay type): functional
The subject of test [1] is Botrytis cinerea. The test can be described thus: Antifungal activity against Botryotinia fuckeliana 2100 assessed as inhibition of radial growth at 50 ug/mL at 25 degC measured after 5 days. As to conditions: Botrytis cinerea, 2100, 120 h; read-out: GI.
In test [2] the test system is Botrytis cinerea. Description: Antifungal activity against Botryotinia fuckeliana 2100 assessed as inhibition of radial growth at 100 ug/mL at 25 degC measured after 5 days. As to conditions: Botrytis cinerea, 2100, 120 h; read-out: GI.
Test [3] deals with Botrytis cinerea. Description: Antifungal activity against Botryotinia fuckeliana 2100 assessed as inhibition of radial growth at 150 ug/mL at 25 degC measured after 5 days. To be noted: Botrytis cinerea, 2100, 120 h; read-out: GI.
The subject of test [4] is Colletotrichum gloeosporioides. Description: Antifungal activity against Colletotrichum gloeosporioides 20122-CECT assessed as inhibition of radial growth at 50 ug/mL at 25 degC measured after 5 days. To be noted: 120 h, read-out: GI.
Test [5] has as its system Colletotrichum gloeosporioides. Description: Antifungal activity against Colletotrichum gloeosporioides 20122-CECT assessed as inhibition of radial growth at 100 ug/mL at 25 degC measured after 5 days. To be noted: 120 h, read-out: GI.
The test system of test [6] is Colletotrichum gloeosporioides. The test can be described thus: Antifungal activity against Colletotrichum gloeosporioides 20122-CECT assessed as inhibition of radial growth at 150 ug/mL at 25 degC measured after 5 days. To be noted: 120 h, read-out: GI.
Test [7] relates to Botrytis cinerea. The test can be described thus: Antifungal activity against Botryotinia fuckeliana 2100 assessed as inhibition of radial growth at 150 ug/mL at 25 degC measured after 4 days. To be noted: Botrytis cinerea, 2100, 96 h; read-out: GI.
The test system of test [8] is Colletotrichum gloeosporioides. Description: Antifungal activity against Colletotrichum gloeosporioides 20122-CECT assessed as inhibition of radial growth at 50 ug/mL at 25 degC measured after 4 days. To be noted: 96 h, read-out: GI.
Test [9] has as its system Colletotrichum gloeosporioides. Description: Antifungal activity against Colletotrichum gloeosporioides 20122-CECT assessed as inhibition of radial growth at 100 ug/mL at 25 degC measured after 4 days. To be noted: 96 h, read-out: GI.
Test [10] has as its system Colletotrichum gloeosporioides. The test can be described thus: Antifungal activity against Colletotrichum gloeosporioides 20122-CECT assessed as inhibition of radial growth at 150 ug/mL at 25 degC measured after 4 days. To be noted: 96 h, read-out: GI.

Structures are written as SMILES.

As to `CCC(O)c1ccc(Cl)cc1` (racemic), the results for the inhibition of growth at 50 µg/mL (in the test on Botrytis cinerea [1]; in test [4]) were 61% and 28%, respectively. For the same compound, the inhibition of growth at 100 µg/mL in the test on Botrytis cinerea [2] was determined as 77%; in [5], 41%. For the same compound, the inhibition of growth at 150 µg/mL with Botrytis cinerea [3] came out at 95%; in test [6], 51%.

As to `CC[C@@H](O)c1ccc(Cl)cc1`, the inhibition of growth at 50 µg/mL was 74% in the test with Botrytis cinerea [1] and 28% in test [4]. The results for the inhibition of growth at 100 µg/mL (in the test on Botrytis cinerea [2]; in [5]) were 82% and 39%, respectively. Moreover, the inhibition of growth at 150 µg/mL was found to be 98% with Botrytis cinerea [3] and 59% in [6].

As to `Clc1ccc(/C=C/c2ccccc2)cc1`, the figures for the inhibition of growth at 150 µg/mL (with Botrytis cinerea [7]; in test [6]) were 19% and 0%, respectively. The inhibition of growth at 50 µg/mL in test [4] stood at 0%. Further, the inhibition of growth at 100 µg/mL in test [5] came to 0%.

For the compound `CCC(O)c1cccc(Cl)c1` (racemic), the inhibition of growth at 50 µg/mL was found to be 67% in the test on Botrytis cinerea [1] and 31% in test [4]. Besides, the inhibition of growth at 100 µg/mL in the test on Botrytis cinerea [2] was 77%; in test [5] it was 60%. In addition, the values for the inhibition of growth at 150 µg/mL (in the test with Botrytis cinerea [3]; in [6]) were 83% and 62%, respectively.

In the case of `CC[C@@H](O)c1cccc(Cl)c1`, the figures for the inhibition of growth at 50 µg/mL (in the test on Botrytis cinerea [1]; in test [4]) were 72% and 34%, respectively. The inhibition of growth at 100 µg/mL came to 80% in the test on Botrytis cinerea [2] and 60% in test [5]. The inhibition of growth at 150 µg/mL in the test on Botrytis cinerea [3] worked out at 86%; in test [6] it was 65%.

Consider `O=C(Cc1ccccc1)c1ccc(Cl)cc1`, for which the figures for the inhibition of growth at 50 µg/mL (with Botrytis cinerea [1]; in test [8]) were 31% and 9%, respectively. The figures for the inhibition of growth at 100 µg/mL (in the test on Botrytis cinerea [2]; in test [9]) were 33% and 13%, respectively. Besides, the inhibition of growth at 150 µg/mL is 38% in the test on Botrytis cinerea [3] and 17% in test [10].

Take `O[C@H](c1ccccc1)[C@H](O)c1ccc(Cl)cc1`: the inhibition of growth at 50 µg/mL was determined as 32% in the test with Botrytis cinerea [1] and 22% in [4]. Moreover, the values for the inhibition of growth at 100 µg/mL (with Botrytis cinerea [2]; in test [5]) were 59% and 42%, respectively. Besides, the figures for the inhibition of growth at 150 µg/mL (in the test with Botrytis cinerea [3]; in [6]) were 62% and 51%, respectively.

Take `OC(c1ccc(Cl)cc1)C1CC1` (racemic): the inhibition of growth at 50 µg/mL with Botrytis cinerea [1] was determined as 74%; in [4] it was 31%. The inhibition of growth at 100 µg/mL in the test on Botrytis cinerea [2] was found to be 100%; in test [5], 53%. Also, the inhibition of growth at 150 µg/mL amounted to 100% in the test with Botrytis cinerea [3] and 80% in test [6].

Regarding `O[C@H](c1ccccc1)c1ccc(Cl)cc1`, the inhibition of growth at 50 µg/mL amounted to 99% in the test with Botrytis cinerea [1] and 73% in [4]. For the same compound, the inhibition of growth at 100 µg/mL amounted to 100% in the test on Botrytis cinerea [2] and 94% in [5]. The inhibition of growth at 150 µg/mL (in the test on Botrytis cinerea [3]; in test [6]) was 100% throughout.

Turning to `O[C@H](c1ccc(Cl)cc1)C1CC1`, the inhibition of growth at 50 µg/mL with Botrytis cinerea [1] stood at 63%; in test [8] it was 20%. The inhibition of growth at 100 µg/mL with Botrytis cinerea [2] came to 80%; in test [9] it was 23%. Further, the inhibition of growth at 150 µg/mL in the test with Botrytis cinerea [3] worked out at 97%; in test [10], 27%.

Turning to `CCC(=O)c1ccc(Cl)cc1`, the inhibition of growth at 50 µg/mL (with Botrytis cinerea [1]; in test [4]) was 28% in each case. Besides, the results for the inhibition of growth at 100 µg/mL (in the test with Botrytis cinerea [2]; in test [5]) were 51% and 29%, respectively. Moreover, the figures for the inhibition of growth at 150 µg/mL (in the test with Botrytis cinerea [3]; in test [6]) were 91% and 36%, respectively.

As for `CC[C@@H](OC(C)=O)c1cccc(Cl)c1`, the inhibition of growth at 50 µg/mL with Botrytis cinerea [1] is 22%; in test [4], 0%. Further, the results for the inhibition of growth at 100 µg/mL (in the test on Botrytis cinerea [2]; in test [5]) were 29% and 0%, respectively. Also, the results for the inhibition of growth at 150 µg/mL (in the test on Botrytis cinerea [3]; in test [6]) were 30% and 0%, respectively.

Turning to `CC[C@@H](OC(C)=O)c1ccc(Cl)cc1`, the inhibition of growth at 50 µg/mL with Botrytis cinerea [1] is 12%; in test [4], 0%. The inhibition of growth at 100 µg/mL amounted to 40% in the test on Botrytis cinerea [2] and 0% in [5]. The inhibition of growth at 150 µg/mL in the test on Botrytis cinerea [3] was 44%; in test [6] it was 0%.

As for `Clc1ccc(C2OC2c2ccccc2)cc1` (stereo not drawn), the inhibition of growth at 150 µg/mL came to 28% in the test on Botrytis cinerea [3] and 0% in [6]. Further, the inhibition of growth at 50 µg/mL in test [4] was 0%. For the same compound, the inhibition of growth at 100 µg/mL in [5] stood at 0%.

Take `CC[C@H](O)c1cccc(Cl)c1`: the inhibition of growth at 50 µg/mL in the test on Botrytis cinerea [1] was 64%; in [4], 32%. The inhibition of growth at 100 µg/mL was 71% in the test on Botrytis cinerea [2] and 37% in [5]. The inhibition of growth at 150 µg/mL in the test with Botrytis cinerea [3] amounted to 82%; in test [6], 49%.

For the compound `O=C(c1ccc(Cl)cc1)C1CC1` [(4-CHLOROPHENYL)(CYCLOPROPYL)METHANONE], the inhibition of growth at 50 µg/mL was determined as 88% with Botrytis cinerea [1] and 21% in test [4]. For the same compound, the figures for the inhibition of growth at 100 µg/mL (with Botrytis cinerea [2]; in [5]) were 99% and 63%, respectively. Further, the inhibition of growth at 150 µg/mL turned out to be 100% in the test with Botrytis cinerea [3] and 86% in test [6].

With `CCC(=O)c1cccc(Cl)c1`, the inhibition of growth at 50 µg/mL was 26% in the test with Botrytis cinerea [1] and 22% in test [4]. The values for the inhibition of growth at 100 µg/mL (in the test with Botrytis cinerea [2]; in test [5]) were 49% and 28%, respectively. Further, the figures for the inhibition of growth at 150 µg/mL (in the test on Botrytis cinerea [3]; in test [6]) were 91% and 42%, respectively.

As for `OC(c1ccccc1)c1ccc(Cl)cc1` (racemic), the inhibition of growth at 50 µg/mL in the test with Botrytis cinerea [1] amounted to 95%; in [4], 63%. For the same compound, the inhibition of growth at 100 µg/mL in the test with Botrytis cinerea [2] stood at 100%; in [5], 87%. The inhibition of growth at 150 µg/mL came out at 100% with Botrytis cinerea [3] and 94% in [6].

Take `O[C@@H](c1ccccc1)c1ccc(Cl)cc1`: the inhibition of growth at 50 µg/mL in the test on Botrytis cinerea [1] amounted to 91%; in test [4] it was 66%. In addition, the inhibition of growth at 100 µg/mL with Botrytis cinerea [2] turned out to be 100%; in test [5] it was 85%. The inhibition of growth at 150 µg/mL in the test on Botrytis cinerea [3] was 100%; in test [6] it was 96%.

Take `O[C@@H](c1ccc(Cl)cc1)C1CC1`: the values for the inhibition of growth at 50 µg/mL (in the test with Botrytis cinerea [1]; in test [4]) were 77% and 25%, respectively. Further, the values for the inhibition of growth at 100 µg/mL (in the test on Botrytis cinerea [2]; in test [5]) were 100% and 40%, respectively. In addition, the inhibition of growth at 150 µg/mL in the test with Botrytis cinerea [3] worked out at 100%; in test [6], 52%.

In the case of `O[C@@H](c1ccccc1)[C@@H](O)c1ccc(Cl)cc1`, the inhibition of growth at 50 µg/mL was 33% in the test on Botrytis cinerea [1] and 27% in test [4]. Moreover, the inhibition of growth at 100 µg/mL with Botrytis cinerea [2] came out at 63%; in test [5], 52%. For the same compound, the values for the inhibition of growth at 150 µg/mL (in the test on Botrytis cinerea [3]; in [6]) were 68% and 62%, respectively.

On to `CC[C@H](O)c1ccc(Cl)cc1`, for which the inhibition of growth at 50 µg/mL with Botrytis cinerea [1] stood at 62%; in test [4], 28%. For the same compound, the inhibition of growth at 100 µg/mL in the test with Botrytis cinerea [2] was found to be 73%; in [5], 29%. The values for the inhibition of growth at 150 µg/mL (in the test with Botrytis cinerea [3]; in [6]) were 92% and 33%, respectively.
